# Assay results from patent US10500198B2, “Bis-benzylidine piperidone proteasome inhibitor with anticancer activity” (The Johns Hopkins University, priority 2013, dated 2019).
# Legend:
# 4UbFL reporter = assay: Proteasome inhibition in vivo (4UbFL reporter bioluminescence)
# Method: After the indicated time points of treatment, bioluminescence was measured by injection of luciferin and imaging with an IVIS 200 (fold change±SD, *p<0.05, **p<0.01).
# Two hours after gene gun delivery of the plasmid or one day post electroporation, mice were injected i.p. with 100 uL of luciferin (3 mg/mL) and anesthetized with isoflurane and optical imaging was performed for basal level luciferase expression. Images were acquired for 10 min with a Xenogen IVIS 200 (Caliper, Hopkinton, Mass.). Equally sized areas were analyzed using Living Image 2.20 software.
# cancer cells = assay: Antiproliferative activity against cancer cells (design rationale); format: cell-based
# Excerpt: We used Chloro and Nitro functional groups as substituent's on the aromatic ring due to their greater electron withdrawing effect at ortho (or) para (or) meta (or) both positions along with different amino acid linkages on bis-benzylidine piperidone moiety. Amino acids were chosen based in their physical characteristics like very hydrophobic (phenylalanine), strongly basic and hydrophilic (lysine), basic and hydrophilic (histidine) and amphiphilic (glycine). Commercially available Fmoc and Boc protected amino acids were used in the synthesis, and they were evaluated for their antiproliferatory activity against cancer cells.
# Next we synthesized another set of compounds by converting free amine functionality to its Acetate (Ac), Acrolyl (Acr) and Benzoyl […] analogs as these units are part of many anticancer drugs because of their smaller size and feasibility to form inter molecular hydrogen bonds with proteins.
# In the RA195 molecule two amino functionalities of lysine can provide more flexibility to make better analogs.
# ES2-luciferase tumor = ES2-luciferase tumor in nude mice; format: in vivo, mouse; conditions: 10 mg/kg i.p. every day, 14 days
# Excerpt: (§1) Prior to and at the end of the treatment, mice were imaged for bioluminescence. […] The mice were imaged before and at the end of the treatment for bioluminescence levels. We have previously described the susceptibility of human ovarian cancer lines to proteasome inhibition. […] Prior to and 7 and 14 days after initiation of treatment, the mice were imaged for luciferase activity.
# (§2) For TC-1 tumors, C57BL/6 mice (8/group) were challenged subcutaneously with 5×10^4 TC-1 cells/mice. Tumors grew for approximately 7 days until they were palpable, whereupon the mice were weighed and treatment was initiated. Tumor size was measured with a digital caliper and calculated based on the formula: [largest diameter×(perpendicular diameter)2]π/6. Nude mice (8 per group) were inoculated with 1×10^6 EΩ-Luciferase cells i.p. in 100 μL PBS. At day 3 mice were imaged for basal level luminescence expression. […] NOG mice (5 per group) were inoculated with 1×10^6 NCI-H929-GFP-Luc cells i.v., and after 4 weeks, mice were imaged for their luciferase activity and divided into two groups.
# purified 20S proteasomes = purified 20S proteasomes (Homo sapiens, UniProt P28072+P28074+Q99436); assay: 20S proteolytic activity assay; format: biochemical; conditions: 1 μM; for chymotryptic activity of the 20S proteasome (Suc-LLVY-AMC): 30 min
# Method: Actin was used as a loading control. […] In FIG. 9C-E, purified 20S proteasomes were treated for 30 min with or without compounds (1 μM) prior to the addition of the specific fluorogenic substrate for chymotryptic (9C), tryptic (9D) or PGPH (9E) hydrolytic proteasome capacities. […] DMSO was added to all samples to a final concentration of 0.1% (upper panel). The effect of DMSO is highlighted by including ubiquitin—AMC (0.5 μM) hydrolysis with 2 nM UCH37 lacking DMSO (orange, bottom panel). In FIG. 9H, purified 19S RP (500 nM) in buffer was treated with corresponding compounds 30 min at 37° C. and AMC cleavage was measured with a fluorometer for 20 min. Ubal was used as a positive control.
# Release of free AMC by the enzyme reaction was determined by measuring its fluorescence at 380 nm (excitation) and 440 nm (emission). The graphs shown are representative of at least three independent determinations and each data point is the mean of ±SD of triplicate determinations.
# 20S proteasome cleaves the chymotryptic substrate and releases fluorescent AMC.
# OVCAR3 = assay: Cell viability after 48-hr treatment (Table 1); format: cell-based, human; conditions: XTT assay
# Method: (§3) Cell viability was assayed using CellTiter 960 AQueous One Solution Reagent (Promega, Madison, Wis.). Cells seeded at the concentration of 1,000 cells/well for HeLa, 5,000 cells/well for ES2 and HCT116 and 10,000-20,000 cells/well for other cell lines in 100 μL medium in 96-well plate were treated with RA series compounds at specified concentrations. […]
# HeLa = assay: Cell viability after 48-hr treatment (Table 1); format: cell-based, human; conditions: 48-hr treatment; XTT assay; read-out: IC50, HeLa
# Method: as §3
# RPMI8226 = assay: Cell viability after 48-hr treatment (Table 1); format: cell-based; conditions: XTT assay
# Method: (§4) Cells seeded at the concentration of 1,000 cells/well for HeLa, 5,000 cells/well for ES2 and HCT116 and 10,000-20,000 cells/well for other cell lines in 100 μL medium in 96-well plate were treated with RA series compounds at specified concentrations. […]
# HaCaT = assay: Cell viability after 48-hr treatment (Table 1); format: cell-based; conditions: 48-hr treatment; XTT assay; read-out: IC50, HaCaT
# Method: as §4
# HT3 = assay: Cell viability after 48-hr treatment (Table 1); format: cell-based; conditions: 48-hr treatment; XTT assay; read-out: IC50, HT3
# Method: as §4
# SiHa = assay: Cell viability after 48-hr treatment (Table 1); format: cell-based; conditions: 48-hr treatment; XTT assay; read-out: IC50, SiHa
# Method: as §4
# [1] = system: NCI-H929-GFP-luc human tumor cells; assay: NCI-H929 MM tumor in NOG mice; format: in vivo, mouse; conditions: 20 mg/kg/day i.p., 7 days
# Excerpt: as §1, §2
# TC-1 tumor = TC-1 tumor in C57BL6 mice; format: in vivo, mouse
# Method: as §2
# Splenocytes were prepared and stimulated with HPV16 E7aa49-57 peptide (1 μg/mL) at the presence of GolgiPlug (BD Pharmingen) overnight at 37° C. The cells were first stained with PE-conjugated anti-mouse CD 8α (BD Pharmingen), then permeabilized, fixed and intracellularly stained with FITC-conjugated anti-mouse IFN-γ (BD Pharmingen). The data were acquired with FACS Calibur and analyzed with CellQuest software.
# [2] = system: p53 in HeLa, CaSki, and SiHa cells; assay: Immunoblot for p53 in cervical cancer cells; format: cell-based; conditions: 24 hr
# Method: Tubulin was used as a loading control.
# Total cellular protein (10-20 μg) from each sample was subjected to SDS-PAGE, transferred to PVDF membranes and analyzed by Western blot. Antibodies for Western blot analysis were obtained by the following commercial sources: anti-ubiquitin, anti-p53 (FL393), anti-p21(WAF1), anti-hDLG-1(2D11), anti-Puma, Bak, Bax (Cell Signaling Technology, Danvers, Mass.), anti-IκB-α (C-15), anti-ATF-4 (SC-200) (Santa Cruz Biotechnology, Santa Cruz, Calif.), anti-PARP (BD Pharmingen, San Diego, Calif.), anti HSP90 (Stressgen Corp, Victoria BC, Canada), anti-tubulin (Sigma, St. Louis, Mo.), anti-Actin, anti-ADRM1 (anti-RPN13), anti-RPN2 (anti-PSMD1) (Sigma-Aldrich), anti-RPN10, UCH37 (Cell-signaling), anti-RPN1 (proteasome 19S subunit anti-S2) (Thermo Scientific), streptavidin Dyna beads (Invitrogen), HRP-streptavidin (Invitrogen), peroxidase-linked anti-mouse Immunoglobulin G and anti-rabbit IgG (GE Healthcare UK Ltd, UK) and utilized at the concentration recommended by the manufacturer.
# HeLa cells = assay: Active caspase-3 by FACS; format: cell-based, human; conditions: 1 μM, 8 h
# Method: HeLa cells were treated with RA195 (1 μM) and Bz(1 μM) for the period of 8 h. Cells were stained for PE-conjugated Caspase-3 antibody and measured active caspase-3 by FACS.
# PAO3C cells = assay: Immunoblot of PAO3C pancreatic cell lysates; format: cell-based; conditions: 1 uM
# Method: Cell lysate was subjected to immunoblot and probed for anti UB antibody. For Bax proteins levels cells were treated for 24 hr. Actin used as […].
# [3] = i.m. electroporated 4UbFL, RA190 40 mg/kg i.p., bortezomib 1.5 mg/kg i.p.
smiles,measurement,setting,value
"Cl.N[C@@H](Cc1ccccc1)C(=O)N1CC(=Cc2ccc(Cl)c(Cl)c2)C(=O)C(=Cc2ccc(Cl)c(Cl)c2)C1 [RA190, 3,5-bis(3,4-dichlorobenzylidene)-1-(S-2-amino-3-phenyl)-piperidin-4-one-HCl salt]",bioluminescence after oral administration,"4UbFL reporter; 40 mg/kg orally, 4UbFL i.m. by electroporation or in skin via gene gun",increased the bioluminescence
same,4UbFL reporter in skin after topical administration,4UbFL reporter; 4% in Cremophor-EL topically,stabilized the 4UbFL reporter in skin
same,bioluminescence at 48 hr after treatment,"4UbFL reporter; i.m. electroporated 4UbFL, RA190 40 mg/kg i.p.",significant increase in bioluminescence
same,"bioluminescence compared to vehicle alone, 4 hr after treatment",4UbFL reporter; [3],4 fold
same,"increase in bioluminescence, one day post-treatment",4UbFL reporter; [3],4 fold
same,antiproliferative potency among analogs,cancer cells,higher potency
same,ES2 tumor growth (bioluminescence),ES2-luciferase tumor,significantly inhibited
same,chymotryptic activity of the 20S proteasome (Suc-LLVY-AMC),purified 20S proteasomes,do not
same,"CP chymotryptic, tryptic, and PGPH activities",purified 20S proteasomes; 30 min pre-treatment,does not inhibit
same,IC50,OVCAR3,2000 nM
same,IC50,HeLa,150 nM
same,IC50,RPMI8226,100 nM
same,IC50,HaCaT,> 2500 nM
same,IC50,HT3,> 5000 nM
same,IC50,SiHa,750 nM
same,antitumor activity (bioluminescence),[1],potent antitumor activity
same,polyubiquitinated proteins in tumor lysates,"TC-1 tumor; i.p. 20 mg/kg daily for 7 days, western blot",dramatically elevated
same,weight gain and spontaneous E7-specific CD8+ T cell response versus vehicle,TC-1 tumor; oral 40 mg/kg every third day,did not differ significantly
same,final tumor weight,"TC-1 tumor; oral 40 mg/kg every third day, after 14-day treatment period",727 ± 101 mg
same,TC-1 tumor growth versus vehicle,"TC-1 tumor; oral 40 mg/kg every third day, p<0.001",significantly inhibited
same,p53 levels,[2],elevated p53 levels
Cl.NCCCC[C@H](NC(=O)OCC1c2ccccc2-c2ccccc21)C(=O)N1C/C(=C\c2ccc(Cl)c(Cl)c2)C(=O)/C(=C/c2ccc(Cl)c(Cl)c2)C1 [RA195],antiproliferative potency among analogs,cancer cells,higher potency
same,chymotryptic activity of the 20S proteasome (Suc-LLVY-AMC),purified 20S proteasomes,do not
same,active caspase-3,HeLa cells,induced active capase expression
same,Poly Ubiquitinated proteins,PAO3C cells; 12 h,causes accumulation of Poly Ubiquitinated proteins
same,apoptotic protein Bax,PAO3C cells; 24 hr,elevation of apoptotic protein Bax
